Assay [1] relates to tamoxifen-sensitive ER+ MCF-7:WS8 breast cancer cells. The assay is described as follows: Growth inhibition in tamoxifen-sensitive ER+ MCF-7:WS8 breast cancer cells. The following applies: MCF7:WS8, MCF-7:WS8 cells; for IC50: assayed from 0.01 nM to 1 uM; for Emax: read-out: MCF7:WS8 Max efficacy (%). It counts as cell-based.
The next assay relates to ER (ERE). Briefly: ER antagonism (ERE). In kind it is cell-based. The procedure:
(§1) Example compounds were assayed to determine ER downregulation, relative binding affinity, and ER antagonism.

The target in a further assay is T1, ER (Homo sapiens, UniProt P03372).
T1 construct: endogenous in cells
T1 sequence (P03372 1-595): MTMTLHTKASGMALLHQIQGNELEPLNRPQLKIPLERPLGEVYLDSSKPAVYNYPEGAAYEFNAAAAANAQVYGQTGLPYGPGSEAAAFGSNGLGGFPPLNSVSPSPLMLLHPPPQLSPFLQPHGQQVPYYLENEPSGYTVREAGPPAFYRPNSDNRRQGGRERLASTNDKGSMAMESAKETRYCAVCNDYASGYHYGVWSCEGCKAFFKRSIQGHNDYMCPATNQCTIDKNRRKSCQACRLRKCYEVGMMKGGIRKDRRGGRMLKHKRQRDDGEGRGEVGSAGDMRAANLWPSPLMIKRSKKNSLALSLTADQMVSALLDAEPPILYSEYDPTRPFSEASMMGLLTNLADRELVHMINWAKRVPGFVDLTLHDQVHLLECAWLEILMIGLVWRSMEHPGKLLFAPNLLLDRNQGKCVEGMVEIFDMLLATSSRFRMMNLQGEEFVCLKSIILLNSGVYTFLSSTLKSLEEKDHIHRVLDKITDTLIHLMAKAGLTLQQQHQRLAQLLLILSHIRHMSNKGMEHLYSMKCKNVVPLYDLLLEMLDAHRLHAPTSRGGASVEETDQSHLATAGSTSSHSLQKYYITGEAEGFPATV
The assay is described as follows: Relative binding affinity (RBA). Here is the method:
as §1

Assay [2] has as its system tamoxifen-resistant MCF-7:5C breast cancer cells. Briefly: Growth inhibition in tamoxifen-resistant MCF-7:5C breast cancer cells. It counts as cell-based. To be noted: MCF7:5C, MCF-7:5C cells; for IC50: assayed from 0.01 nM to 1 uM; for Emax: read-out: MCF7:5C Max efficacy (%).

Some results are limits rather than exact numbers.

Take `Cc1ccccc1C(=O)c1sc2cc(O)ccc2c1Oc1ccc(OC2CN(CCCF)C2)cc1` [Compound 20, (3-(4-((1-(3-fluoropropyl)azetidin-3-yl)oxy)phenoxy)-6-hydroxybenzo[b]thiophen-2-yl)(o-tolyl)methanone]: the IC50 in assay [1] was found to be 0.04 ± 0.006 nM; in the assay with ER (ERE), 5.3 ± 0.08 nM; in assay [2], 4.9 ± 0.2 nM. Also, the Emax in assay [1] was determined as 75%; in assay [2] it was 70%. Also, the “RBA (%)” value on ER came to 27.8 ± 8%.

As for `O=C(c1ccc(F)cc1)c1sc2cc(O)ccc2c1Oc1ccc(OCCN2CC(CF)C2)cc1` [Compound 61, (3-(4-(2-(3-(fluoromethyl)azetidin-1-yl)ethoxy)phenoxy)-6-hydroxybenzo[b]thiophen-2-yl)(4-fluorophenyl) methanone], the IC50 in assay [1] amounted to 1.3 ± 0.1 nM; with ER (ERE), 2.8 ± 0.1 nM; in assay [2], 0.58 ± 0.04 nM. Further, the Emax in assay [1] came out at 70%; in assay [2] it was 55%. For the same compound, the “RBA (%)” value on ER amounted to 9.15 ± 0.9%.

In the case of `Cc1ccccc1C(=O)c1sc2cc(O)ccc2c1Oc1ccc(OCCN2CCCCC2)cc1` [Compound 65, (6-hydroxy-3-(4-(2-(piperidin-1-yl)ethoxy)phenoxy)benzo[b]thiophen-2-yl)(o-tolyl)methanone], the IC50 in assay [1] is 0.39 ± 0.05 nM; in the assay with ER (ERE), 2.1 ± 0.06 nM; in assay [2], above 1000 nM. Further, the Emax in assay [1] stood at 65%. Moreover, the “RBA (%)” value on ER came out at 91.8 ± 6%.

In general, IC50 refers to the concentration needed to halve the response being measured. A lower IC50 goes with higher potency.
